# PMC5513037, “Examining the influence of specificity ligands and ATP-competitive ligands on the overall effectiveness of bivalent kinase inhibitors” (Proteome Science, 2017)
# Tests used:
# Assay in all cases: KAM-matrix competition in K562 lysate;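 for 0.001 uM KAM: median log10 fold change of treatment over DMSO control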;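 for 0.01 uM KAM: median log10 fold change of treatment over DMSO control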;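 for 0.1 uM KAM: median log10 fold change of treatment over DMSO control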;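 for 1 uM KAM: median log10 fold change of treatment over DMSO control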;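 for 10 uM KAM: median log10 fold change of treatment over DMSO control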
# Format in all cases: binding
# [1] = target: T1, MAP2K7 (Homo sapiens, UniProt O14733);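 for 0.001 uM KAM: median log10 fold change of treatment over DMSO control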;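 for 0.01 uM KAM: median log10 fold change of treatment over DMSO control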;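 for 0.1 uM KAM: median log10 fold change of treatment over DMSO control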;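 for 1 uM KAM: median log10 fold change of treatment over DMSO control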;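 for 10 uM KAM: median log10 fold change of treatment over DMSO control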
# T1 construct: endogenous in cells; host or cells: K562
# T1 sequence (O14733 1-419): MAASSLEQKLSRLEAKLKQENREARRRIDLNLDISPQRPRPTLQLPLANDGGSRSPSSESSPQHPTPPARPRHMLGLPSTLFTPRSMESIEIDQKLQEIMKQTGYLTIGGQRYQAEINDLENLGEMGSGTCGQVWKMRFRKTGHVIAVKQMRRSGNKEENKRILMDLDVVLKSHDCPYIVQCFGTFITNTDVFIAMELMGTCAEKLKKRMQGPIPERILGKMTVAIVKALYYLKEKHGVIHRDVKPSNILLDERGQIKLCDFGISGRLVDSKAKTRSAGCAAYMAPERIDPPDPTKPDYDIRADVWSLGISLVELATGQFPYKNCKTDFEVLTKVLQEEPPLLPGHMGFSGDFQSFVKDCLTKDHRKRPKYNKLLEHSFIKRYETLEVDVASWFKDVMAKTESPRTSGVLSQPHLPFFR
# Experimental: (§1) Supplement 12953_2017_125_MOESM1_ESM.zip/MS_Supp Info.xlsx, sheet "KAM" | column: 10 uM KAM; 1 uM KAM; 0.1 uM KAM; 0.01 uM KAM; 0.001 uM KAM; RB50
# [2] = target: T2, MAP4K5 (Homo sapiens, UniProt Q9Y4K4)
# T2 construct: endogenous in cells; host or cells: K562
# Experimental: as §1
# [3] = target: T3, BRD2 (Homo sapiens, UniProt P25440)
# T3 construct: endogenous in cells; host or cells: K562
# Experimental: as §1
# [4] = target: T4, PIK3R4 (Homo sapiens, UniProt Q99570);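 for 0.001 uM KAM: median log10 fold change of treatment over DMSO control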;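 for 0.01 uM KAM: median log10 fold change of treatment over DMSO control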;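 for 0.1 uM KAM: median log10 fold change of treatment over DMSO control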;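 for 1 uM KAM: median log10 fold change of treatment over DMSO control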;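 for 10 uM KAM: median log10 fold change of treatment over DMSO control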
# T4 construct: endogenous in cells; host or cells: K562
# Experimental: as §1
# [5] = target: T5, MAST2 (Homo sapiens, UniProt Q6P0Q8);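 for 0.001 uM KAM: median log10 fold change of treatment over DMSO control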;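 for 0.01 uM KAM: median log10 fold change of treatment over DMSO control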;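 for 0.1 uM KAM: median log10 fold change of treatment over DMSO control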;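 for 1 uM KAM: median log10 fold change of treatment over DMSO control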;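 for 10 uM KAM: median log10 fold change of treatment over DMSO control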
# T5 construct: endogenous in cells; host or cells: K562 cells (combined S0.8 and P0.8 lysate)
# Experimental: as §1
# [6] = target: T6, RIPK2 (Homo sapiens, UniProt O43353)
# T6 construct: endogenous in cells; host or cells: K562
# Experimental: as §1
# [7] = target: T7, ACTR2 (Homo sapiens, UniProt P61160);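 for 0.001 uM KAM: median log10 fold change of treatment over DMSO control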;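 for 0.01 uM KAM: median log10 fold change of treatment over DMSO control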;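 for 0.1 uM KAM: median log10 fold change of treatment over DMSO control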;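 for 1 uM KAM: median log10 fold change of treatment over DMSO control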;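 for 10 uM KAM: median log10 fold change of treatment over DMSO control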
# T7 construct: endogenous in cells; host or cells: K562
# Experimental: as §1
# [8] = target: T8, PRKACG (Homo sapiens, UniProt P22612);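 for 0.001 uM KAM: median log10 fold change of treatment over DMSO control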;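 for 0.01 uM KAM: median log10 fold change of treatment over DMSO control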;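 for 0.1 uM KAM: median log10 fold change of treatment over DMSO control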;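 for 1 uM KAM: median log10 fold change of treatment over DMSO control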;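 for 10 uM KAM: median log10 fold change of treatment over DMSO control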
# T8 construct: endogenous in cells; host or cells: K562
# Experimental: as §1
# [9] = target: T9, LATS2 (Homo sapiens, UniProt Q9NRM7)
# T9 construct: endogenous in cells; host or cells: K562
# T9 sequence (Q9NRM7 1-1088): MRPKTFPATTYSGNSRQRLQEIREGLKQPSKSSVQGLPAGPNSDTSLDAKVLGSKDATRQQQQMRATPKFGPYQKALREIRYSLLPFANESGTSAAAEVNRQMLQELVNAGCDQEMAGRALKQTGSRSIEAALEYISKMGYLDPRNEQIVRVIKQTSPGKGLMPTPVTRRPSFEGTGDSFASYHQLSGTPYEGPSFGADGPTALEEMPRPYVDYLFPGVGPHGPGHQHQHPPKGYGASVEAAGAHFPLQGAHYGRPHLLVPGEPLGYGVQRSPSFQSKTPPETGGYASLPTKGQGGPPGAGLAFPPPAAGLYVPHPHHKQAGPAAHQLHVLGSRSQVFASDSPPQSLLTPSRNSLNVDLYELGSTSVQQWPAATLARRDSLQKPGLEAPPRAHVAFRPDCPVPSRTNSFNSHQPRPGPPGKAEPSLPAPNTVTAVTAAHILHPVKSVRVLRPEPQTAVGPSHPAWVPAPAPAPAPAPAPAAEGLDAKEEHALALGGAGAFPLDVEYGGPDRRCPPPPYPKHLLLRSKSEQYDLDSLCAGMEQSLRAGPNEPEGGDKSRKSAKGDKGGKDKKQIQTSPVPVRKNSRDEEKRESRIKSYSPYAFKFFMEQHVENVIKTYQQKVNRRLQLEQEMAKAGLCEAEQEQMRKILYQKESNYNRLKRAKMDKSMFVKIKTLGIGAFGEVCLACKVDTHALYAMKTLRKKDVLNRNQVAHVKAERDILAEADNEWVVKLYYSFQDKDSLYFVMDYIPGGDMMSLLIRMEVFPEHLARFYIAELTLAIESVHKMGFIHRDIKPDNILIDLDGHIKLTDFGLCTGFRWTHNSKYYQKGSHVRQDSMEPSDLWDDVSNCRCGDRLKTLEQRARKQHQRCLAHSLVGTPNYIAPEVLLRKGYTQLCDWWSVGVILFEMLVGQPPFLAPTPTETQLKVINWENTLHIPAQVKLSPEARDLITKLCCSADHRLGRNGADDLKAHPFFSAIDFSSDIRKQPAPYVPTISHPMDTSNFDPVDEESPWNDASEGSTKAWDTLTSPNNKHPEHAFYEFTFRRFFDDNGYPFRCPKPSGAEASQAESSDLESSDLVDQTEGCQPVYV
# Experimental: as §1
# [10] = KAM 0.001-10 uM, read-out: RB50 (the source's name)
# [11] = read-out: RB50 (the source's name)
# T2 sequence (Q9Y4K4 whole entry): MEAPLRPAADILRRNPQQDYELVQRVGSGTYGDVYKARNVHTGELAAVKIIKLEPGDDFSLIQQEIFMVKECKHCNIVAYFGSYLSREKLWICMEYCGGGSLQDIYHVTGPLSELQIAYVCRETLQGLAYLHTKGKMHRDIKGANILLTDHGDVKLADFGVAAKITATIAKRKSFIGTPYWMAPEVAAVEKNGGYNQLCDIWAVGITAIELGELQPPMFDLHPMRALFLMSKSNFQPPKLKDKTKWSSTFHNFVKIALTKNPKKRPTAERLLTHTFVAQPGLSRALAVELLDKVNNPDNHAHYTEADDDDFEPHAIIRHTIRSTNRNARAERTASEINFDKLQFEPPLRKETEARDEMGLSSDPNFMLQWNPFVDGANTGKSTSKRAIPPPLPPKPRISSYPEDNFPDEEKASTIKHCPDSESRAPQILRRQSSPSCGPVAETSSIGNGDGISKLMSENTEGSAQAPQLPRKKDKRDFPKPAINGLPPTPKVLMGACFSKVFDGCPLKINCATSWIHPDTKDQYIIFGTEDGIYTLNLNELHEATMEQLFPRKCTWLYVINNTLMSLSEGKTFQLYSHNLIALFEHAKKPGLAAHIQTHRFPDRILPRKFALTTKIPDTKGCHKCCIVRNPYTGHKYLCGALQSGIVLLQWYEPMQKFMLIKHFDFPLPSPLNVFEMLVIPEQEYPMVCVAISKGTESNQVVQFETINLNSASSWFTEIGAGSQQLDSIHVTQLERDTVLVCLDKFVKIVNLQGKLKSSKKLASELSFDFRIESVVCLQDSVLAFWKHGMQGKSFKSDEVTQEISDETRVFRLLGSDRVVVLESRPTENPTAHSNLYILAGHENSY
# T6 sequence (O43353 whole entry): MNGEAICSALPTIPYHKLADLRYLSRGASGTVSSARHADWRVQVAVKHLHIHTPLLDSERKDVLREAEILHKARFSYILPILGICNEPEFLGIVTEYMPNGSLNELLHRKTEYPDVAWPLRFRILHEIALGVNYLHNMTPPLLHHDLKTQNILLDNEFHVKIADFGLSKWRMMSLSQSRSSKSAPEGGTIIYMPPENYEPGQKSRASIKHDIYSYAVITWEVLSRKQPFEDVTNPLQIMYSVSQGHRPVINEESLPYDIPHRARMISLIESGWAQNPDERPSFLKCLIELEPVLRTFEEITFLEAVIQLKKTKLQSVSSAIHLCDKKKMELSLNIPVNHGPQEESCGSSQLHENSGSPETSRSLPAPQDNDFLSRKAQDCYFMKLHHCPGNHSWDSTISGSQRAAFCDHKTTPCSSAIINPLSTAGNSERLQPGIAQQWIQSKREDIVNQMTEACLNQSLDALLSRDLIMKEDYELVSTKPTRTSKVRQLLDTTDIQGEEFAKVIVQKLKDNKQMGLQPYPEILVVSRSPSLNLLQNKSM
# T8 sequence (P22612 whole entry): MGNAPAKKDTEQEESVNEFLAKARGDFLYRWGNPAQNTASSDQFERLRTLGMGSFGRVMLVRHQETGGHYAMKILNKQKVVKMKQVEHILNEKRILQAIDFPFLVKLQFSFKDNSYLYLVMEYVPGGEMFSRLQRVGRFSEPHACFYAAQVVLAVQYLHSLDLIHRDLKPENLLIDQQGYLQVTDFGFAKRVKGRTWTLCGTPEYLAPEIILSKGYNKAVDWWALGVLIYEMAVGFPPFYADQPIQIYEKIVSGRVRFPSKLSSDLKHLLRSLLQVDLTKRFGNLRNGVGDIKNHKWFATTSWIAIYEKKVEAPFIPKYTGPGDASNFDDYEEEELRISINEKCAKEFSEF
# T4 sequence (Q99570 2-1358 limits assumed): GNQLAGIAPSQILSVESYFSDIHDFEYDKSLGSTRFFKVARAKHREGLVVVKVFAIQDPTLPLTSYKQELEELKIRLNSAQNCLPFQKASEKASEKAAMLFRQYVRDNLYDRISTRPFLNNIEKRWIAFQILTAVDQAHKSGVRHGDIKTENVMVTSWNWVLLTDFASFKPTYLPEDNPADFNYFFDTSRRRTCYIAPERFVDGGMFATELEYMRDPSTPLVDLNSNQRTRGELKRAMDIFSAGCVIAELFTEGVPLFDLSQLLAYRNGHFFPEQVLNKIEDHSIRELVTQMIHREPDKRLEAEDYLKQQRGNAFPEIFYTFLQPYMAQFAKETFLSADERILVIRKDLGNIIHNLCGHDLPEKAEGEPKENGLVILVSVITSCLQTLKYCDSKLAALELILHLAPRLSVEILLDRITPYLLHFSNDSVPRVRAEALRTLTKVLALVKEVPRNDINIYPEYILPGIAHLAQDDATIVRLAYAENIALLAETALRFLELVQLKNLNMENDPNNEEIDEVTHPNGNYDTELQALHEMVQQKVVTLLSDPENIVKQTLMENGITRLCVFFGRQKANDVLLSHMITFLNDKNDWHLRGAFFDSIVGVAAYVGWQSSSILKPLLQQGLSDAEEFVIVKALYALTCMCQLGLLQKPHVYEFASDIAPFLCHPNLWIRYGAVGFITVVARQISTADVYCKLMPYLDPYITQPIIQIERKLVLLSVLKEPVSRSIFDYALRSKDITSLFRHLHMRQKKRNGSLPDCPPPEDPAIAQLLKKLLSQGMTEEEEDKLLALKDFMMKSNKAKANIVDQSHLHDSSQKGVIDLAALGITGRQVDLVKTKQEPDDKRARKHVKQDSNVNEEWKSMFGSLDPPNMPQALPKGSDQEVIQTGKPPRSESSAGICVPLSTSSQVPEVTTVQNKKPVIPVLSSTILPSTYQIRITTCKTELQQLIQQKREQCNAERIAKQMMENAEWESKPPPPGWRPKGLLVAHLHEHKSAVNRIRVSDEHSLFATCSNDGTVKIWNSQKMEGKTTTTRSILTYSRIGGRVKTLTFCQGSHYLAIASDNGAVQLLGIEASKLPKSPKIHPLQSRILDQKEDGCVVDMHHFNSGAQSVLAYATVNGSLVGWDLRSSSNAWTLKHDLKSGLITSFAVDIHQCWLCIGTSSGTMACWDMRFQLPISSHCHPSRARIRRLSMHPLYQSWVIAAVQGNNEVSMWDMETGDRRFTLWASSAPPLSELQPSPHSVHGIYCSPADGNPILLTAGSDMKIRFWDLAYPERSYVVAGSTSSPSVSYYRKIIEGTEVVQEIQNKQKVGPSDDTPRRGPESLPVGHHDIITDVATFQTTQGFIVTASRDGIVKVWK
# T4 sequence (Q8NEB9 whole entry partner): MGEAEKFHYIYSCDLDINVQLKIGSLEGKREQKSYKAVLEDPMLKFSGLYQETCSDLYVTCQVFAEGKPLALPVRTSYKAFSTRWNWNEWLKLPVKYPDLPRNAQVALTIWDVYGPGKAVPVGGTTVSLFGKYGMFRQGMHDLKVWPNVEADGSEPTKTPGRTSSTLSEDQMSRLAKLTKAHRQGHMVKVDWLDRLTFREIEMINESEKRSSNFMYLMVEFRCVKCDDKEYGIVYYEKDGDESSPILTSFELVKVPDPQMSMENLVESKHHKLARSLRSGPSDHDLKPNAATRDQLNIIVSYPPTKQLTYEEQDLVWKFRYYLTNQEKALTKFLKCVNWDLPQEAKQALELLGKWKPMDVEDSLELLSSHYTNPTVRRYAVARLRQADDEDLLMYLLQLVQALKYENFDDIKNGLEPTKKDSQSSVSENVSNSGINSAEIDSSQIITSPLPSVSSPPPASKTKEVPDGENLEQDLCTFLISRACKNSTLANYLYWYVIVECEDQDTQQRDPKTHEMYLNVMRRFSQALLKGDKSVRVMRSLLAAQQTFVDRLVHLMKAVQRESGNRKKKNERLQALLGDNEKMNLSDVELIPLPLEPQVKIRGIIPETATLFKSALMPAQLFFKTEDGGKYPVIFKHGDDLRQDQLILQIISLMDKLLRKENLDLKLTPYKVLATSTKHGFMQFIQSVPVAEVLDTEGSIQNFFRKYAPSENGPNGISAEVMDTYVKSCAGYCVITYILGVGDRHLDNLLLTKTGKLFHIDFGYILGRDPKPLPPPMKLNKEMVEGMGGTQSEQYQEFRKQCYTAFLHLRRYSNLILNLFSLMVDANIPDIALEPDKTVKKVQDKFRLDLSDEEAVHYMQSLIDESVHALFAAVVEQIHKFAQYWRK
# T3 sequence (P25440 whole entry): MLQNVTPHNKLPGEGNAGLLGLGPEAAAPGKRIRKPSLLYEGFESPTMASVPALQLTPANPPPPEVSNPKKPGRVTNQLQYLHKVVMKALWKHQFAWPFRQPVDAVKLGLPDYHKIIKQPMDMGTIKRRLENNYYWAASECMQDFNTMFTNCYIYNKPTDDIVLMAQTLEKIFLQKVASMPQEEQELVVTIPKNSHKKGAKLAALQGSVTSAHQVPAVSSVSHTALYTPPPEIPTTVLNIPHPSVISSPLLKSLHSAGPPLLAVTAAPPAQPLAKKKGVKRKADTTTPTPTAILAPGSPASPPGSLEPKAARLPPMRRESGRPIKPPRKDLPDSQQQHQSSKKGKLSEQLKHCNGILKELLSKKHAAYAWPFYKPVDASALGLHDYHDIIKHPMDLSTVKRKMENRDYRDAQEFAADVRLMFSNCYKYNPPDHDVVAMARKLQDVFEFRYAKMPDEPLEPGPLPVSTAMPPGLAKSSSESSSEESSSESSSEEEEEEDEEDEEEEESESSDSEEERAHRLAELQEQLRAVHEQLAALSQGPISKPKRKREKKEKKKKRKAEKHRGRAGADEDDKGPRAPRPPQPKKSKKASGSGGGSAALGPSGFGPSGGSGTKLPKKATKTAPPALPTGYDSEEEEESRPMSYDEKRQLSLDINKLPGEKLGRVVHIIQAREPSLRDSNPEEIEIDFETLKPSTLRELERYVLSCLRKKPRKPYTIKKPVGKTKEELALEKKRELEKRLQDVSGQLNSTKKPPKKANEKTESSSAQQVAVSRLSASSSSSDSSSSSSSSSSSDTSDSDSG
smiles,measurement,setting,value
N#CCc1ccc(Nc2nc(NCCCN)cc(Nc3cc(C4CC4)[nH]n3)n2)cc1 [KAM],IC50,[1]; [10],> 10 µM
same,0.001 uM KAM,[1]; relative to 0 uM KAM = 0,0.00178
same,0.01 uM KAM,[1]; relative to 0 uM KAM = 0,-0.02319
same,0.1 uM KAM,[1]; relative to 0 uM KAM = 0,-0.04803
same,1 uM KAM,[1]; relative to 0 uM KAM = 0,-0.07056
same,10 uM KAM,[1]; relative to 0 uM KAM = 0,-0.08653
same,median Log10 fold change,[2]; 0.001 uM KAM,0.009454
same,median Log10 fold change,[2]; 0.01 uM KAM,-0.01011
same,median Log10 fold change,[2]; 0.1 uM KAM,-0.2304
same,median Log10 fold change,[2]; 1 uM KAM,-0.4191
same,median Log10 fold change,[2]; 10 uM KAM,-0.5735
same,IC50,[2]; [11],0.332 µM
same,median Log10 fold change,[3]; 0.001 uM KAM,-0.02696
same,median Log10 fold change,[3]; 0.01 uM KAM,-0.0008346
same,median Log10 fold change,[3]; 0.1 uM KAM,-0.172
same,median Log10 fold change,[3]; 1 uM KAM,-0.286
same,median Log10 fold change,[3]; 10 uM KAM,-0.3099
same,IC50,[3]; [11],1.89 µM
same,IC50,[4]; [10],> 10 µM
same,0.001 uM KAM,[4]; relative to 0 uM KAM = 0,-0.04609
same,0.01 uM KAM,[4]; relative to 0 uM KAM = 0,0.02295
same,0.1 uM KAM,[4]; relative to 0 uM KAM = 0,-0.02338
same,1 uM KAM,[4]; relative to 0 uM KAM = 0,-0.03171
same,10 uM KAM,[4]; relative to 0 uM KAM = 0,-0.01923
same,IC50,[5]; [10],> 10 µM
same,0.001 uM KAM,[5]; relative to 0 uM KAM = 0,-0.0424
same,0.01 uM KAM,[5]; relative to 0 uM KAM = 0,0.0396
same,0.1 uM KAM,[5]; relative to 0 uM KAM = 0,-0.03782
same,1 uM KAM,[5]; relative to 0 uM KAM = 0,-0.1315
same,10 uM KAM,[5]; relative to 0 uM KAM = 0,-0.1411
same,median Log10 fold change,[6]; 0.001 uM KAM,0.003964
same,median Log10 fold change,[6]; 0.01 uM KAM,-0.006424
same,median Log10 fold change,[6]; 0.1 uM KAM,-0.0711
same,median Log10 fold change,[6]; 1 uM KAM,-0.241
same,median Log10 fold change,[6]; 10 uM KAM,-0.4874
same,IC50,[6]; [11],1.86 µM
same,IC50,[7]; [10],> 10 µM
same,0.001 uM KAM,[7]; relative to 0 uM KAM = 0,-0.002123
same,0.01 uM KAM,[7]; relative to 0 uM KAM = 0,0.01622
same,0.1 uM KAM,[7]; relative to 0 uM KAM = 0,0.01541
same,1 uM KAM,[7]; relative to 0 uM KAM = 0,0.07708
same,10 uM KAM,[7]; relative to 0 uM KAM = 0,0.05031
same,IC50,[8]; [10],> 10 µM
same,0.001 uM KAM,[8]; relative to 0 uM KAM = 0,-0.03855
same,0.01 uM KAM,[8]; relative to 0 uM KAM = 0,0.1471
same,0.1 uM KAM,[8]; relative to 0 uM KAM = 0,0.178
same,1 uM KAM,[8]; relative to 0 uM KAM = 0,0.2462
same,10 uM KAM,[8]; relative to 0 uM KAM = 0,0.202
same,median Log10 fold change,[9]; 0.001 uM KAM,0.01099
same,median Log10 fold change,[9]; 0.01 uM KAM,-0.05599
same,median Log10 fold change,[9]; 0.1 uM KAM,-0.2153
same,median Log10 fold change,[9]; 1 uM KAM,-0.4993
same,median Log10 fold change,[9]; 10 uM KAM,-0.5621
same,IC50,[9]; [11],0.251 µM
